The values that follow come from patent US7589113B2, “Substituted oxadiazole compounds and their use as opioid receptor ligands” (Gruenenthal GmbH, priority 2005, dated 2009).

One test deals with T1, human μ opiate receptor (Homo sapiens, UniProt P35372).
T1 construct: purchased PerkinElmer Life Sciences, Zaventem, Belgium RB-HOM; host or cells: CHO-K1 cells (membrane preparation)
The experiment in a line: Affinity for human μ opiate receptor ([3H]-naloxone displacement, SPA). Type of test: binding. The settings on record: for inhibition at 1 µM / μ opioid receptor, % inhibition [1 μM]: 1 μM test substance, inhibition of specific [3H]-naloxone binding; for inhibition at 1 µM: read-out: μ opioid receptor, % inhibition [1 μM]; for Ki: Cheng-Prusoff conversion from IC50, read-out: μ opioid receptor, Ki. The protocol: Method for Determining Affinity for Human μ Opiate Receptor
Receptor affinity for the human μ opiate receptor is determined in a homogeneous batch in microtitre plates. To this end, dilution series of the substances to be tested are incubated in a total volume of 250 μl for 90 minutes at room temperature with a receptor membrane preparation (15-40 μg protein/250 μl incubation batch) of CHO-K1 cells which express the human μ-opiate receptor (RB-HOM receptor membrane preparation from PerkinElmer Life Sciences, Zaventem, Belgium) in the presence of 1 nmol/l of the radioactive ligand [^3H]-naloxone (NET719, from PerkinElmer Life Sciences, Zaventem, Belgium) and 1 mg of WGA-SPA beads (wheat germ agglutinin SPA beads from Amersham/Pharmacia, Freiburg, Germany). 50 mmol/l of tris HCl supplemented with 0.06% bovine serum albumin is used as the incubation buffer. Nonspecific binding is determined by additionally adding 100 μmol/l of naloxone. Once the ninety minute incubation time has elapsed, the microtitre plates are centrifuged off for 20 minutes at 1000 g and the radioactivity measured in a β counter (Microbeta-Trilux, from PerkinElmer Wallac, Freiburg, Germany). The percentage displacement of the radioactive ligand from its binding to the human μ opiate receptor is determined at a concentration of the test substances of 1 μmol/l and stated as percentage inhibition of specific binding. On the basis of the percentage displacement brought about by different concentrations of the test substances, IC50 inhibition concentrations which result in a 50% displacement of the radioactive ligand are calculated. Ki values for the test substances are obtained by conversion using the Cheng-Prusoff equation.

The target in the next test is T2, Noradrenalin reuptake (Rattus norvegicus, UniProt Q63380).
T2 construct: these vesicular particles are isolated from the hypothalamus of male rat brains; from tissue; host or cells: hypothalamus of male rat brains, synaptosomes (P2 fraction)
T2 sequence (Q63380 1-617): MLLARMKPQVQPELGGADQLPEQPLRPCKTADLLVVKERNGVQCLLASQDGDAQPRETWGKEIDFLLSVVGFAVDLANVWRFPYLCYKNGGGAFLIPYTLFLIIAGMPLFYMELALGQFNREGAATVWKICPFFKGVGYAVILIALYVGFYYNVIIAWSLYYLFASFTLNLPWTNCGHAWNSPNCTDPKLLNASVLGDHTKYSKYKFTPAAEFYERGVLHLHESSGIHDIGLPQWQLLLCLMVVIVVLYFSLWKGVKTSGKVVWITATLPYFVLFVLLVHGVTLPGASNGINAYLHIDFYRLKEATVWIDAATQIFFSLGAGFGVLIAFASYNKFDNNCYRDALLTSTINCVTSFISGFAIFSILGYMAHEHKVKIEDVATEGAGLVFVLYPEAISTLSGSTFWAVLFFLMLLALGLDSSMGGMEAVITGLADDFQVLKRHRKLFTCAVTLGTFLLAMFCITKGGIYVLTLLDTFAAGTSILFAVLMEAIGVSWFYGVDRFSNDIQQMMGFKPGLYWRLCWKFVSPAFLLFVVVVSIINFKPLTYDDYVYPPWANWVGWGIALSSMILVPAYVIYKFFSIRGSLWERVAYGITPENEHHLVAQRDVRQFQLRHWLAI
The experiment in a line: Noradrenalin (NA) reuptake inhibition in rat hypothalamus synaptosomes. Type of test: biochemical. The protocol:
(§1) Noradrenalin (NA) and Serotonin (5HT) Reuptake Inhibition
(§2) In order to be able to carry out these in vitro studies, synaptosomes are freshly isolated from rat brain regions. A “P2” fraction is used, which is prepared according to the instructions given by Gray and Whittaker (E. G. Gray and V. P. Whittaker (1962) J. Anat. 76, 79-88). For NA uptake, these vesicular particles are isolated from the hypothalamus of male rat brains.
(§3) A detailed description of the method may be found in the literature (M. Ch. Frink, H.-H. Hennies, W. Engiberger, M. Haurand and B. Wilffert (1996) Arzneim.-Forsch./Drug Res. 46 (III), 11, 1029-1036).

Another test has as its target T3, Serotonin reuptake (Rattus norvegicus, UniProt P31652).
T3 construct: synaptosomes are freshly isolated from rat brain regions; from tissue; host or cells: rat brain synaptosomes (P2 fraction)
The experiment in a line: Serotonin (5HT) reuptake inhibition in rat brain synaptosomes. The test is classed as biochemical. The protocol:
as §1, §2, §3

Structures are written as SMILES.

T1 sequence (P35372 whole entry): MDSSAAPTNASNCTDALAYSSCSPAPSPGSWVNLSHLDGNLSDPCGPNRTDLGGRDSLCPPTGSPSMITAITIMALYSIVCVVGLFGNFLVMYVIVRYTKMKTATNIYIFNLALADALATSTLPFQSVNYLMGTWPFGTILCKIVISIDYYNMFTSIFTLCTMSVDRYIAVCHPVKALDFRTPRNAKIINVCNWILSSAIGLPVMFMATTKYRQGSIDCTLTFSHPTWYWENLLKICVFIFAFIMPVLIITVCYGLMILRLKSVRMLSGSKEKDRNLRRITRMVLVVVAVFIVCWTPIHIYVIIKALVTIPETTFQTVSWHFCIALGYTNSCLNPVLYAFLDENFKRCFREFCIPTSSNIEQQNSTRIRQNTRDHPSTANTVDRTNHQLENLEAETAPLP
T3 sequence (P31652 whole entry): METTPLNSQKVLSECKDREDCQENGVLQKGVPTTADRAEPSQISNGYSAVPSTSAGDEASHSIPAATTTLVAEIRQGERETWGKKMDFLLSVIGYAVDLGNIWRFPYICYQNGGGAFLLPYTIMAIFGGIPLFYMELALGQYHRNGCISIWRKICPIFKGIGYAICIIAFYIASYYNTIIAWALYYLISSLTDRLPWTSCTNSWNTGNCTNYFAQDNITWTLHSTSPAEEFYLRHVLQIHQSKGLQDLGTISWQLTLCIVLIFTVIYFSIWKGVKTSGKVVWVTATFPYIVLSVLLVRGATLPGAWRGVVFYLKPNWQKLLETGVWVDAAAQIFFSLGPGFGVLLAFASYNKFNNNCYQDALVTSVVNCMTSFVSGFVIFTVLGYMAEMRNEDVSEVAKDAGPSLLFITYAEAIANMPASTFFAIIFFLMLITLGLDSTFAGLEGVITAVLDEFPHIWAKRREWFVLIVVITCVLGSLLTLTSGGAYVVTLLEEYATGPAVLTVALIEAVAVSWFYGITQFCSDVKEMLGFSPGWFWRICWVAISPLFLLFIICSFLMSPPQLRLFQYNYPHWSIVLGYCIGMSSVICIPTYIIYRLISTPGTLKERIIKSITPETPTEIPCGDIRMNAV

As for `CN(C)C(c1ccccc1)C1CCC(CCc2nc(-c3ccc(F)cc3F)no2)CC1` (stereo not drawn) [Example 281, [(4-{2-[3-(2,4-difluorophenyl)-[1,2,4]oxadiazol-5-yl]-ethyl}-cyclohexyl)-phenylmethyl]-dimethylamine], the inhibition (commonly how much of the control response was suppressed) at 1 µM at human μ opiate receptor worked out at 69%.

With `COc1ccc(Cc2noc(CC3CCC(C(c4ccccc4)N(C)C)CC3)n2)cc1` (stereo not drawn) [Example 44, (4-((3-(4-methoxybenzyl)-1,2,4-oxadiazol-5-yl)methyl)cyclohexyl)-N,N-dimethyl(phenyl)methanamine], on human μ opiate receptor, the “μ opioid receptor, % inhibition [1 μM]” value was 75% and the Ki (as a rule, a dissociation constant, usually derived from enzyme kinetics or from competition with a known ligand) was found to be 72 nM. Also, on Noradrenalin reuptake, at 10 µM the inhibition was 100%. In addition, at Serotonin reuptake, the inhibition at 10 µM is 99%. Turning to `Cc1cccc(-c2noc(CCC3CCC(C(c4ccccc4)N(C)C)CC3)n2)c1` (stereo not drawn) [Example 296, dimethyl-(phenyl-{4-[2-(3-m-tolyl-[1,2,4]oxadiazol-5-yl)-ethyl]-cyclohexyl}-methyl)-amine], at human μ opiate receptor, the inhibition at 1 µM is 45%. On the same count and under the same terms, the figure for `Cc1cccc(-c2noc(C=C3CCC(C(c4ccccc4)N(C)C)CC3)n2)c1` (stereo not drawn) [Example 135, dimethyl-{phenyl-[4-(3-m-tolyl-[1,2,4]oxadiazol-5-ylmethylene)-cyclohexyl]-methyl}-amine] is 44%; for `COc1ccc(Cc2noc(CC3CCC(C(c4ccccc4)N(C)C)CC3)n2)cc1` (stereo not drawn) [Example 239, ({4-[3-(4-methoxybenzyl)-[1,2,4]oxadiazol-5-ylmethyl]-cyclohexyl}-phenylmethyl)-dimethylamine] it is 66%; for `CN(C)C(c1ccccc1)C1CCC(Cc2nc(-c3cccc(Cl)c3Cl)no2)CC1` (stereo not drawn) [Example 246, ({4-[3-(2,3-dichlorophenyl)-[1,2,4]oxadiazol-5-ylmethyl]-cyclohexyl}-phenylmethyl)-dimethylamine] it is 56%. On the same count and under the same terms, in the case of `CN(C)C(c1ccccc1)C1CCC(C=Cc2nc(Cc3ccc(Cl)cc3)no2)CC1` (stereo not drawn) [Example 149, [(4-{2-[3-(4-chlorobenzyl)-[1,2,4]oxadiazol-5-yl]-vinyl}-cyclohexyl)-phenylmethyl]-dimethylamine] it was 42%; in that of `CN(C)C(c1ccc(F)cc1)C1CCC(=Cc2nc(-c3cccc(Cl)c3Cl)no2)CC1` (stereo not drawn) [Example 55, [{4-[3-(2,3-dichlorophenyl)-[1,2,4]oxadiazol-5-ylmethylene]-cyclohexyl}-(4-fluorophenyl)-methyl]-dimethylamine], 53%; in that of `Cc1cccc(-c2noc(C=CC3CCC(C(c4ccccc4)N(C)C)CC3)n2)c1` (stereo not drawn) [Example 183, dimethyl-(phenyl-{4-[2-(3-m-tolyl-[1,2,4]oxadiazol-5-yl)-vinyl]-cyclohexyl}-methyl)-amine], 40%.

Regarding `Cc1cccc(-c2noc(CC3CCC(C(c4ccccc4)N(C)C)CC3)n2)c1` (stereo not drawn) [Example 258, dimethyl-{phenyl-[4-(3-m-tolyl-[1,2,4]oxadiazol-5-ylmethyl)-cyclohexyl]-methyl}-amine], at human μ opiate receptor, the inhibition at 1 µM worked out at 53%. On the same count and under the same terms, in the case of `COc1ccc(Cc2noc(C=C3CCC(C(c4ccccc4)N(C)C)CC3)n2)cc1` (stereo not drawn) [Example 79, ({4-[3-(4-methoxybenzyl)-[1,2,4]oxadiazol-5-ylmethylene]-cyclohexyl}-phenylmethyl)-dimethylamine] it was 43%.

Turning to `Cc1cccc(-c2noc(C=CC3CCC(C(c4cccs4)N(C)C)CC3)n2)c1` (stereo not drawn) [Example 195, dimethyl-(thiophen-2-yl-{4-[2-(3-m-tolyl-[1,2,4]oxadiazol-5-yl)-vinyl]-cyclohexyl}-methyl)-amine], the inhibition at 1 µM on human μ opiate receptor came to 48%. For `CN(C)C(c1cccs1)C1CCC(C=Cc2nc(Cc3ccc(Cl)cc3)no2)CC1` (stereo not drawn) [Example 155, [(4-{2-[3-(4-chlorobenzyl)-[1,2,4]oxadiazol-5-yl]-vinyl}-cyclohexyl)-thiophen-2-yl-methyl]-dimethylamine], the inhibition at 1 µM at human μ opiate receptor came to 52%. As to `CN(C)C(c1ccccc1)C1CCC(Cc2nc(-c3cccc(Cl)c3)no2)CC1` (stereo not drawn) [Example 243, ({4-[3-(3-chlorophenyl)-[1,2,4]oxadiazol-5-ylmethyl]-cyclohexyl}-phenylmethyl)-dimethylamine], at human μ opiate receptor, the inhibition at 1 µM was 55% and the Ki was 320 nM. In the case of `CN(C)C(c1ccccc1)C1CCC(Cc2nc(Cc3ccc(Cl)cc3)no2)CC1` (stereo not drawn) [Example 43, (4-((3-(4-chlorobenzyl)-1,2,4-oxadiazol-5-yl)methyl)cyclohexyl)-N,N-dimethyl(phenyl)methanamine], on human μ opiate receptor, the inhibition at 1 µM came out at 83% and the Ki is 44 nM. Also, at 10 µM the inhibition on Noradrenalin reuptake was 95%. For the same compound, the inhibition at 10 µM at Serotonin reuptake was 95%. Turning to `CN(C)C(c1ccccc1)C1CCC(=Cc2nc(-c3ccccc3)no2)CC1` (stereo not drawn) [Example 69, dimethyl-{phenyl-[4-(3-phenyl-[1,2,4]oxadiazol-5-ylmethylene)-cyclohexyl]-methyl}-amine], on human μ opiate receptor, the inhibition at 1 µM turned out to be 40%.

`Cc1ccc(-c2noc(C=CC3CCC(C(c4cccs4)N(C)C)CC3)n2)n1C` (stereo not drawn) [Example 224, [(4-{2-[3-(1,5-dimethyl-1H-pyrrol-2-yl)-[1,2,4]oxadiazol-5-yl]-vinyl}-cyclohexyl)-thiophen-2-yl-methyl]-dimethylamine]: on human μ opiate receptor, the inhibition at 1 µM was 54%.

As to `CN(C)C(c1ccccc1)C1CCC(CCc2nc(Cc3ccc(Cl)cc3)no2)CC1` (stereo not drawn) [Example 273, [(4-{2-[3-(4-chlorobenzyl)-[1,2,4]oxadiazol-5-yl]-ethyl}-cyclohexyl)-phenylmethyl]-dimethylamine], the inhibition at 1 µM on human μ opiate receptor is 68%. Still for that read-out and setting: in the case of `CN(C)C(c1cccc(F)c1)C1CCC(Cc2nc(-c3ccccc3)no2)CC1` (stereo not drawn) [Example 232, {(3-fluorophenyl)-[4-(3-phenyl-[1,2,4]oxadiazol-5-ylmethyl)-cyclohexyl]-methyl}-dimethylamine] it was 41%. In the case of `CN(C)C(c1ccccc1)C1CCC(C=Cc2nc(Cc3ccc(Cl)cc3)no2)CC1` (stereo not drawn) [Example 150, [(4-{2-[3-(4-chlorobenzyl)-[1,2,4]oxadiazol-5-yl]-vinyl}-cyclohexyl)-phenylmethyl]-dimethylamine], on human μ opiate receptor, the “μ opioid receptor, % inhibition [1 μM]” value was determined as 56%. `CN(C)C(c1ccccc1)C1CCC(Cc2nc(-c3ccccc3)no2)CC1` (stereo not drawn) [Example 234, dimethyl-{phenyl-[4-(3-phenyl-[1,2,4]oxadiazol-5-ylmethyl)-cyclohexyl]-methyl}-amine]: on human μ opiate receptor, the inhibition at 1 µM turned out to be 64%. On the same count and under the same terms, in the case of `COc1ccc(Cc2noc(CCC3CCC(C(c4ccccc4)N(C)C)CC3)n2)cc1` (stereo not drawn) [Example 269, [(4-{2-[3-(4-methoxybenzyl)-[1,2,4]oxadiazol-5-yl]-ethyl}-cyclohexyl)-phenylmethyl]-dimethylamine] it was 43%; in that of `CN(C)C(c1ccccc1)C1CCC(CCc2nc(-c3cccc(Cl)c3Cl)no2)CC1` (stereo not drawn) [Example 304, [(4-{2-[3-(2,3-dichlorophenyl)-[1,2,4]oxadiazol-5-yl]-ethyl}-cyclohexyl)-phenylmethyl]-dimethylamine], 51%.
